≈ marks a conversion by molar mass, not a printed value. Calls of active or inactive are those of the source. No cut-off for these calls is given here.
What was measured:
[1] = test system: Vero; test: Cytotoxicity against African green monkey Vero cells after 72 hrs by MTT assay; format: cell-based; details: Chlorocebus sabaeus
[2] = test system: Escherichia coli; test: Antibacterial activity against Escherichia coli at 50 ug/ml after 18 to 24 hrs by disc diffusion method; format: functional; details: read-out: IZ
[3] = Selectivity index, ratio of IC50 for African green monkey Vero cells to MIC for Mycobacterium tuberculosis H37Rv ATCC 27294; format: toxicity, cell-based
[4] = test system: Staphylococcus aureus; test: Antibacterial activity against Staphylococcus aureus at 75 ug/ml after 18 to 24 hrs by disc diffusion method; format: functional; details: for zone of inhibition at 75 µg/mL: read-out: IZ
[5] = test system: Mycobacterium tuberculosis; test: Antimycobacterial activity against Mycobacterium tuberculosis H37Rv ATCC 27294 after 5 days by microplate alamar blue assay; format: functional; details: H37Rv ATCC 27294, 120 h
[6] = test system: Pseudomonas aeruginosa; test: Antibacterial activity against Pseudomonas aeruginosa at 50 ug/ml after 18 to 24 hrs by disc diffusion method; format: functional; details: read-out: IZ
[7] = test system: Pseudomonas aeruginosa; test: Antibacterial activity against Pseudomonas aeruginosa at 75 ug/ml after 18 to 24 hrs by disc diffusion method; format: functional; details: read-out: IZ
[8] = test system: Staphylococcus aureus; test: Antibacterial activity against Staphylococcus aureus at 50 ug/ml after 18 to 24 hrs by disc diffusion method; format: functional; details: for zone of inhibition at 50 µg/mL: read-out: IZ
[9] = test system: Escherichia coli; test: Antibacterial activity against Escherichia coli at 75 ug/ml after 18 to 24 hrs by disc diffusion method; format: functional; details: read-out: IZ

N=c1sc(-c2ccc(F)cc2)nn1CC(=O)N1c2ccccc2Sc2ccc(C(F)(F)F)cc21
IC50 [1]: 733 µg/mL (≈ 1460 µM)
zone of inhibition at 50 µg/mL [2]: 9 mm
selectivity ratio [3]: 458
zone of inhibition at 75 µg/mL [4]: 10 mm
MIC [5]: 1.6 µg/mL (≈ 3.18 µM)
zone of inhibition at 50 µg/mL [6]: 7 mm
zone of inhibition at 75 µg/mL [7]: 13 mm
zone of inhibition at 50 µg/mL [8]: 7 mm
zone of inhibition at 75 µg/mL [9]: 11 mm

CCCc1nn(CC(=O)N2c3ccccc3Sc3ccccc32)c(=N)s1
IC50 [1]: 252 µg/mL (≈ 658 µM)
zone of inhibition at 50 µg/mL [2]: 11 mm
selectivity ratio [3]: 157
zone of inhibition at 75 µg/mL [4]: 16 mm
MIC [5]: 1.6 µg/mL (≈ 4.18 µM)
zone of inhibition at 50 µg/mL [6]: 11 mm
zone of inhibition at 75 µg/mL [7]: 15 mm
zone of inhibition at 50 µg/mL [8]: 12 mm
zone of inhibition at 75 µg/mL [9]: 14 mm

Cc1ccc(-c2nn(CC(=O)N3c4ccccc4Sc4ccc(Cl)cc43)c(=N)s2)cc1
zone of inhibition at 50 µg/mL [2]: 7 mm
zone of inhibition at 75 µg/mL [4]: 12 mm
MIC [5]: 50 µg/mL (≈ 108 µM)
zone of inhibition at 50 µg/mL [6]: 4 mm
zone of inhibition at 75 µg/mL [7]: 7 mm
zone of inhibition at 50 µg/mL [8]: 10 mm
zone of inhibition at 75 µg/mL [9]: 9 mm

CC[C@@H](CO)NCCN[C@@H](CC)CO [ETHAMBUTOL]
MIC [5]: 3.12 µg/mL (≈ 15.3 µM)

N=c1sc(-c2cccs2)nn1CC(=O)N1c2ccccc2Sc2ccc(C(F)(F)F)cc21
zone of inhibition at 50 µg/mL [2]: 8 mm
zone of inhibition at 75 µg/mL [4]: 8 mm
MIC [5]: 50 µg/mL (≈ 102 µM)
zone of inhibition at 50 µg/mL [6]: 8 mm
zone of inhibition at 75 µg/mL [7]: 12 mm
zone of inhibition at 50 µg/mL [8]: 5 mm
zone of inhibition at 75 µg/mL [9]: 10 mm

N=c1sc(-c2ccc(F)cc2)nn1CC(=O)N1c2ccccc2Sc2ccc(Cl)cc21
IC50 [1]: 465 µg/mL (≈ 992 µM)
zone of inhibition at 50 µg/mL [2]: 7 mm
selectivity ratio [3]: 149
zone of inhibition at 75 µg/mL [4]: 9 mm
MIC [5]: 3.12 µg/mL (≈ 6.66 µM)
zone of inhibition at 50 µg/mL [6]: 7 mm
zone of inhibition at 75 µg/mL [7]: 10 mm
zone of inhibition at 50 µg/mL [8]: 5 mm
zone of inhibition at 75 µg/mL [9]: 12 mm

N=c1sc(-c2ccc(Cl)cc2)nn1CC(=O)N1c2ccccc2Sc2ccc(Cl)cc21
IC50 [1]: 757 µg/mL (≈ 1560 µM)
zone of inhibition at 50 µg/mL [2]: 12 mm
selectivity ratio [3]: 473
zone of inhibition at 75 µg/mL [4]: 17 mm
MIC [5]: 1.6 µg/mL (≈ 3.3 µM)
zone of inhibition at 50 µg/mL [6]: 15 mm
zone of inhibition at 75 µg/mL [7]: 20 mm
zone of inhibition at 50 µg/mL [8]: 15 mm
zone of inhibition at 75 µg/mL [9]: 15 mm

Cc1nn(CC(=O)N2c3ccccc3Sc3ccc(Cl)cc32)c(=N)s1
IC50 [1]: 470 µg/mL (≈ 1210 µM)
zone of inhibition at 50 µg/mL [2]: 14 mm
selectivity ratio [3]: 294
zone of inhibition at 75 µg/mL [4]: 13 mm
MIC [5]: 1.6 µg/mL (≈ 4.11 µM)
zone of inhibition at 50 µg/mL [6]: 9 mm
zone of inhibition at 75 µg/mL [7]: 13 mm
zone of inhibition at 50 µg/mL [8]: 10 mm
zone of inhibition at 75 µg/mL [9]: 16 mm

N=c1sc(-c2ccc(Cl)cc2)nn1CC(=O)N1c2ccccc2Sc2ccc(C(F)(F)F)cc21
zone of inhibition at 50 µg/mL [2]: 11 mm
zone of inhibition at 75 µg/mL [4]: 13 mm
MIC [5]: 25 µg/mL (≈ 48.2 µM)
zone of inhibition at 50 µg/mL [6]: 9 mm
zone of inhibition at 75 µg/mL [7]: 14 mm
zone of inhibition at 50 µg/mL [8]: 11 mm
zone of inhibition at 75 µg/mL [9]: 12 mm

CCCc1nn(CC(=O)N2c3ccccc3Sc3ccc(Cl)cc32)c(=N)s1
IC50 [1]: 245 µg/mL (≈ 588 µM)
zone of inhibition at 50 µg/mL [2]: 8 mm
selectivity ratio [3]: 306
zone of inhibition at 75 µg/mL [4]: 10 mm
MIC [5]: 0.8 µg/mL (≈ 1.92 µM)
zone of inhibition at 50 µg/mL [6]: 10 mm
zone of inhibition at 75 µg/mL [7]: 12 mm
zone of inhibition at 50 µg/mL [8]: 8 mm
zone of inhibition at 75 µg/mL [9]: 12 mm

Cc1ccc(-c2nn(CC(=O)N3c4ccccc4Sc4ccc(C(F)(F)F)cc43)c(=N)s2)cc1
zone of inhibition at 50 µg/mL [2]: 11 mm
zone of inhibition at 75 µg/mL [4]: 11 mm
MIC [5]: 50 µg/mL (≈ 100 µM)
zone of inhibition at 50 µg/mL [6]: 6 mm
zone of inhibition at 75 µg/mL [7]: 9 mm
zone of inhibition at 50 µg/mL [8]: 9 mm
zone of inhibition at 75 µg/mL [9]: 13 mm

N=c1sc(-c2ccc(Cl)cc2)nn1CC(=O)N1c2ccccc2Sc2ccccc21
zone of inhibition at 50 µg/mL [2]: 8 mm
zone of inhibition at 75 µg/mL [4]: 9 mm
MIC [5]: 50 µg/mL (≈ 111 µM)
zone of inhibition at 50 µg/mL [6]: 7 mm
zone of inhibition at 75 µg/mL [7]: 10 mm
zone of inhibition at 50 µg/mL [8]: 7 mm
zone of inhibition at 75 µg/mL [9]: 10 mm

COc1ccc(-c2nn(CC(=O)N3c4ccccc4Sc4ccc(C(F)(F)F)cc43)c(=N)s2)cc1OC
zone of inhibition at 50 µg/mL [2]: 8 mm
zone of inhibition at 75 µg/mL [4]: 7 mm
MIC [5]: 50 µg/mL (≈ 91.8 µM)
zone of inhibition at 50 µg/mL [6]: 6 mm
zone of inhibition at 75 µg/mL [7]: 9 mm
zone of inhibition at 50 µg/mL [8]: 4 mm
zone of inhibition at 75 µg/mL [9]: 10 mm

Cc1nn(CC(=O)N2c3ccccc3Sc3ccc(C(F)(F)F)cc32)c(=N)s1
IC50 [1]: 350 µg/mL (≈ 828 µM)
zone of inhibition at 50 µg/mL [2]: 15 mm
selectivity ratio [3]: 219
zone of inhibition at 75 µg/mL [4]: 17 mm
MIC [5]: 1.6 µg/mL (≈ 3.79 µM)
zone of inhibition at 50 µg/mL [6]: 12 mm
zone of inhibition at 75 µg/mL [7]: 15 mm
zone of inhibition at 50 µg/mL [8]: 14 mm
zone of inhibition at 75 µg/mL [9]: 20 mm

N=c1sc(-c2cccs2)nn1CC(=O)N1c2ccccc2Sc2ccc(Cl)cc21
zone of inhibition at 50 µg/mL [2]: 4 mm
inhibition zone (IZ) [4]: inactive
MIC [5]: 50 µg/mL (≈ 109 µM)
zone of inhibition at 50 µg/mL [6]: 7 mm
zone of inhibition at 75 µg/mL [7]: 11 mm
inhibition zone (IZ) [8]: inactive
zone of inhibition at 75 µg/mL [9]: 8 mm

CCCc1nn(CC(=O)N2c3ccccc3Sc3ccc(C(F)(F)F)cc32)c(=N)s1
IC50 [1]: 238 µg/mL (≈ 529 µM)
zone of inhibition at 50 µg/mL [2]: 6 mm
selectivity ratio [3]: 76.4
zone of inhibition at 75 µg/mL [4]: 11 mm
MIC [5]: 3.12 µg/mL (≈ 6.94 µM)
zone of inhibition at 50 µg/mL [6]: 3 mm
zone of inhibition at 75 µg/mL [7]: 7 mm
zone of inhibition at 50 µg/mL [8]: 7 mm
zone of inhibition at 75 µg/mL [9]: 9 mm

NNC(=O)c1ccncc1 [ISONIAZID]
MIC [5]: 0.1 µg/mL (≈ 0.729 µM)

O=C(O)c1cn(C2CC2)c2cc(N3CCNCC3)c(F)cc2c1=O [CIPROFLOXACIN]
zone of inhibition at 50 µg/mL [2]: 27 mm
zone of inhibition at 75 µg/mL [4]: 26 mm
MIC [5]: 3.12 µg/mL (≈ 9.43 µM)
zone of inhibition at 50 µg/mL [6]: 18 mm
zone of inhibition at 75 µg/mL [7]: 21 mm
zone of inhibition at 50 µg/mL [8]: 21 mm
zone of inhibition at 75 µg/mL [9]: 32 mm

N=c1sc(-c2cccs2)nn1CC(=O)N1c2ccccc2Sc2ccccc21
zone of inhibition at 50 µg/mL [2]: 6 mm
inhibition zone (IZ) [4]: inactive
MIC [5]: 50 µg/mL (≈ 118 µM)
zone of inhibition at 50 µg/mL [6]: 2 mm
zone of inhibition at 75 µg/mL [7]: 4 mm
inhibition zone (IZ) [8]: inactive
zone of inhibition at 75 µg/mL [9]: 7 mm

COc1ccc(-c2nn(CC(=O)N3c4ccccc4Sc4ccc(Cl)cc43)c(=N)s2)cc1OC
zone of inhibition at 50 µg/mL [2]: 4 mm
zone of inhibition at 75 µg/mL [4]: 8 mm
MIC [5]: 50 µg/mL (≈ 97.8 µM)
zone of inhibition at 50 µg/mL [6]: 4 mm
zone of inhibition at 75 µg/mL [7]: 6 mm
zone of inhibition at 50 µg/mL [8]: 6 mm
zone of inhibition at 75 µg/mL [9]: 8 mm

CN[C@@H]1[C@H](O[C@H]2[C@H](O[C@H]3[C@H](O)[C@@H](O)[C@H](N=C(N)N)[C@@H](O)[C@@H]3N=C(N)N)O[C@@H](C)[C@]2(O)C=O)O[C@@H](CO)[C@H](O)[C@H]1O [STREPTOMYCIN]
MIC [5]: 6.25 µg/mL (≈ 10.7 µM)

COc1ccc(-c2nn(CC(=O)N3c4ccccc4Sc4ccccc43)c(=N)s2)cc1OC
zone of inhibition at 50 µg/mL [2]: 13 mm
zone of inhibition at 75 µg/mL [4]: 21 mm
MIC [5]: 12.5 µg/mL (≈ 26.2 µM)
zone of inhibition at 50 µg/mL [6]: 20 mm
zone of inhibition at 75 µg/mL [7]: 25 mm
zone of inhibition at 50 µg/mL [8]: 18 mm
zone of inhibition at 75 µg/mL [9]: 16 mm

Cc1ccc(-c2nn(CC(=O)N3c4ccccc4Sc4ccccc43)c(=N)s2)cc1
IC50 [1]: 215 µg/mL (≈ 499 µM)
zone of inhibition at 50 µg/mL [2]: 24 mm
selectivity ratio [3]: 269
zone of inhibition at 75 µg/mL [4]: 21 mm
MIC [5]: 0.8 µg/mL (≈ 1.86 µM)
zone of inhibition at 50 µg/mL [6]: 9 mm
zone of inhibition at 75 µg/mL [7]: 11 mm
zone of inhibition at 50 µg/mL [8]: 16 mm
zone of inhibition at 75 µg/mL [9]: 27 mm

Cc1nn(CC(=O)N2c3ccccc3Sc3ccccc32)c(=N)s1
IC50 [1]: 433 µg/mL (≈ 1220 µM)
zone of inhibition at 50 µg/mL [2]: 20 mm
selectivity ratio [3]: 271
zone of inhibition at 75 µg/mL [4]: 26 mm
MIC [5]: 1.6 µg/mL (≈ 4.51 µM)
zone of inhibition at 50 µg/mL [6]: 20 mm
zone of inhibition at 75 µg/mL [7]: 25 mm
zone of inhibition at 50 µg/mL [8]: 22 mm
zone of inhibition at 75 µg/mL [9]: 25 mm

N=c1sc(-c2ccc(F)cc2)nn1CC(=O)N1c2ccccc2Sc2ccccc21
IC50 [1]: 247 µg/mL (≈ 568 µM)
zone of inhibition at 50 µg/mL [2]: 8 mm
selectivity ratio [3]: 79.1
zone of inhibition at 75 µg/mL [4]: 8 mm
MIC [5]: 3.12 µg/mL (≈ 7.19 µM)
zone of inhibition at 50 µg/mL [6]: 8 mm
zone of inhibition at 75 µg/mL [7]: 12 mm
zone of inhibition at 50 µg/mL [8]: 5 mm
zone of inhibition at 75 µg/mL [9]: 11 mm

From ChEMBL document CHEMBL3739317, “Design of new phenothiazine-thiadiazole hybrids via molecular hybridization approach for the development of potent antitubercular agents” (Eur J Med Chem, 2015)
